In PMC4396556, “1,2,3,4,6-Penta-O-galloylglucose within Galla Chinensis Inhibits Human LDH-A and Attenuates Cell Proliferation in MDA-MB-231 Breast Cancer Cells” (Evidence-based Complementary and Alternative Medicine : eCAM, 2015):

Assays:
[1] = molecular target: T1, human LDH-A (hLDH-A) (Homo sapiens, UniProt P00338); experiment: recombinant enzyme assay, NADH oxidation at […] nm; velocity at varied NADH ±[…] PGG; type: biochemical
T1 construct: gene LDHA; recombinant full length human LDHA (amino acids 1–332) with N terminal His tag

[2] = molecular target: T1, human LDH-A (hLDH-A); experiment: recombinant enzyme assay, NADH oxidation at […] nm; type: biochemical

IC50 [1] [µM] | IC50 [2] [µM] | Compound
0.0272 |  | O=C(OC[C@H]1O[C@@H](OC(=O)c2cc(O)c(O)c(O)c2)[C@H](OC(=O)c2cc(O)c(O)c(O)c2)[C@@H](OC(=O)c2cc(O)c(O)c(O)c2)[C@@H]1OC(=O)c1cc(O)c(O)c(O)c1)c1cc(O)c(O)c(O)c1 [PGG, penta-1,2,3,4,6-O-galloyl-β-D-glucose]
 | > 6000 | O=C(O)C(=O)O [oxalic acid]
